Laboratory results: PubChem BioAssay (NCI)
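Test compounds were applied to cells in 96-well plates for 48 hours at 5 doses. At the TGI there is no net growth.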

Tests used:
Assay in all cases: inhibition of tumour cell growth, NCI panel, 48 h
[1] = tested on: SF-268 CNS
[2] = tested on: MALME-3M melanoma
[3] = tested on: SK-MEL-28 melanoma
[4] = tested on: M14 melanoma
[5] = tested on: U251 CNS
[6] = tested on: SW-620 colon
[7] = tested on: LOX IMVI melanoma
[8] = tested on: MDA-MB-231 breast
[9] = tested on: NCI/ADR-RES ovarian
[10] = tested on: OVCAR-8 ovarian
[11] = tested on: T-47D breast
[12] = tested on: KM12 colon
[13] = tested on: MDA-MB-435
[14] = tested on: HT29 colon
[15] = tested on: SNB-19 CNS
[16] = tested on: OVCAR-4 ovarian
[17] = tested on: PC-3 prostate
[18] = tested on: ACHN renal
[19] = tested on: SK-MEL-5 melanoma
[20] = tested on: HS 578T breast
[21] = tested on: DU-145 prostate
[22] = tested on: SF-295 CNS
[23] = tested on: HCT-15 colon
[24] = tested on: UACC-257 melanoma
[25] = tested on: RXF 393 renal
[26] = tested on: A498 renal
[27] = tested on: MDA-N
[28] = tested on: HOP-62 NSCLC
[29] = tested on: NCI-H522 lung
[30] = tested on: SN12C renal
[31] = tested on: SK-MEL-2 melanoma
[32] = tested on: HOP-92 NSCLC
[33] = tested on: TK-10 renal
[34] = tested on: 786-0 renal
[35] = tested on: A549 NSCLC
[36] = tested on: MOLT-4 leukemia
[37] = tested on: CAKI-1 renal
[38] = tested on: EKVX NSCLC
[39] = tested on: OVCAR-3 ovarian
[40] = tested on: HL-60(TB) leukemia
[41] = tested on: UO-31 renal
[42] = tested on: BT-549 breast
[43] = tested on: IGROV1 ovarian
[44] = tested on: NCI-H460 lung
[45] = tested on: OVCAR-5 ovarian
[46] = tested on: HCT-116 colon
[47] = tested on: NCI-H23 lung
[48] = tested on: SR leukemia
[49] = tested on: K-562 leukemia
[50] = tested on: NCI-H226 lung
[51] = tested on: UACC-62 melanoma
[52] = tested on: CCRF-CEM leukemia
[53] = tested on: SNB-75 CNS
[54] = tested on: HCC-2998 colon
[55] = tested on: RPMI-8226 leukemia
[56] = tested on: COLO 205 colon

## O=[As](O)(O)c1ccc(N=Nc2ccc([As](=O)(O)O)cc2)cc1
[1]
  TGI: > 100 µM
[2]
  TGI: > 100 µM
[3]
  TGI: > 100 µM
[4]
  TGI: > 100 µM
[5]
  TGI: > 100 µM
[6]
  TGI: > 100 µM
[7]
  TGI: > 100 µM
[8]
  TGI: > 100 µM
[9]
  TGI: > 100 µM
[10]
  TGI: > 100 µM
[11]
  TGI: > 100 µM
[12]
  TGI: > 100 µM
[13]
  TGI: > 100 µM
[14]
  TGI: > 100 µM
[15]
  TGI: > 100 µM
[16]
  TGI: > 100 µM
[17]
  TGI: > 100 µM
[18]
  TGI: > 100 µM
[19]
  TGI: > 100 µM
[20]
  TGI: > 100 µM
[21]
  TGI: > 100 µM
[22]
  TGI: > 100 µM
[23]
  TGI: > 100 µM
[24]
  TGI: > 100 µM
[25]
  TGI: > 100 µM
[26]
  TGI: > 100 µM
[27]
  TGI: > 100 µM
[28]
  TGI: > 100 µM
[29]
  TGI: > 100 µM
[30]
  TGI: > 100 µM
[31]
  TGI: > 100 µM
[32]
  TGI: > 100 µM
[33]
  TGI: > 100 µM
[34]
  TGI: > 100 µM
[35]
  TGI: > 100 µM
[36]
  TGI: > 100 µM
[37]
  TGI: > 100 µM
[38]
  TGI: > 100 µM
[39]
  TGI: > 100 µM
[40]
  TGI: > 100 µM
[41]
  TGI: > 100 µM
[42]
  TGI: > 100 µM
[43]
  TGI: > 100 µM
[44]
  TGI: > 100 µM
[45]
  TGI: > 100 µM
[46]
  TGI: > 100 µM
[47]
  TGI: > 100 µM
[48]
  TGI: > 100 µM
[49]
  TGI: > 100 µM
[50]
  TGI: > 100 µM
[51]
  TGI: > 100 µM

## O=c1oc2ccccc2c(O)c1C1c2c(c3ccccc3oc2=O)Oc2c1c(=O)oc1ccccc21
[1]
  TGI: 94 µM
[2]
  TGI: > 100 µM
[3]
  TGI: 97.8 µM
[5]
  TGI: > 100 µM
[6]
  TGI: > 100 µM
[7]
  TGI: > 100 µM
[8]
  TGI: 71.2 µM
[9]
  TGI: > 100 µM
[10]
  TGI: > 100 µM
[52]
  TGI: > 100 µM
[11]
  TGI: > 100 µM
[12]
  TGI: 57.9 µM
[13]
  TGI: 60 µM
[14]
  TGI: 98 µM
[15]
  TGI: > 100 µM
[16]
  TGI: > 100 µM
[53]
  TGI: > 100 µM
[17]
  TGI: > 100 µM
[18]
  TGI: 62.9 µM
[19]
  TGI: 52.1 µM
[20]
  TGI: > 100 µM
[54]
  TGI: 41.1 µM
[21]
  TGI: > 100 µM
[23]
  TGI: > 100 µM
[24]
  TGI: > 100 µM
[26]
  TGI: > 100 µM
[27]
  TGI: 37.3 µM
[28]
  TGI: > 100 µM
[29]
  TGI: > 100 µM
[30]
  TGI: 73.3 µM
[31]
  TGI: > 100 µM
[32]
  TGI: > 100 µM
[33]
  TGI: > 100 µM
[34]
  TGI: > 100 µM
[36]
  TGI: > 100 µM
[55]
  TGI: 87.9 µM
[37]
  TGI: 69.3 µM
[38]
  TGI: > 100 µM
[39]
  TGI: > 100 µM
[56]
  TGI: > 100 µM
[41]
  TGI: 35.6 µM
[42]
  TGI: 67.5 µM
[43]
  TGI: > 100 µM
[44]
  TGI: 31.7 µM
[46]
  TGI: > 100 µM
[47]
  TGI: 89.2 µM
[49]
  TGI: > 100 µM
[50]
  TGI: 64 µM
[51]
  TGI: 47.5 µM
